Here are results for 15 compounds from ChEMBL document CHEMBL1130843, “Design and synthesis of an orally active GPIIb/IIIa antagonist based on a phenylpiperazine scaffold” (Bioorg Med Chem Lett, 1998).

For experiment [1], the target named is Integrin alpha-IIb/beta-3 (Homo sapiens, UniProt P05106+P08514). The experiment is described as follows: Inhibition of fibrinogen binding to platelet glycoprotein alpha IIb beta-3 integrin in ELISA. In general terms: ELISA stands for enzyme-linked immunosorbent assay.
The species entered for a further experiment is Cavia porcellus. The experiment can be described thus: Compound was tested for inhibition of ADP induced platelet aggregation in guinea pig. It counts as functional.
For a further experiment, the species on record is Homo sapiens. The experiment is described as follows: Compound was tested for inhibition of ADP induced platelet aggregation in human platelet-rich plasma. It counts as functional.

pIC50: −log10 of the molar value. Some results are limits rather than exact numbers.

Integrin alpha-IIb/beta-3, sequence (P05106 27-788 limits assumed): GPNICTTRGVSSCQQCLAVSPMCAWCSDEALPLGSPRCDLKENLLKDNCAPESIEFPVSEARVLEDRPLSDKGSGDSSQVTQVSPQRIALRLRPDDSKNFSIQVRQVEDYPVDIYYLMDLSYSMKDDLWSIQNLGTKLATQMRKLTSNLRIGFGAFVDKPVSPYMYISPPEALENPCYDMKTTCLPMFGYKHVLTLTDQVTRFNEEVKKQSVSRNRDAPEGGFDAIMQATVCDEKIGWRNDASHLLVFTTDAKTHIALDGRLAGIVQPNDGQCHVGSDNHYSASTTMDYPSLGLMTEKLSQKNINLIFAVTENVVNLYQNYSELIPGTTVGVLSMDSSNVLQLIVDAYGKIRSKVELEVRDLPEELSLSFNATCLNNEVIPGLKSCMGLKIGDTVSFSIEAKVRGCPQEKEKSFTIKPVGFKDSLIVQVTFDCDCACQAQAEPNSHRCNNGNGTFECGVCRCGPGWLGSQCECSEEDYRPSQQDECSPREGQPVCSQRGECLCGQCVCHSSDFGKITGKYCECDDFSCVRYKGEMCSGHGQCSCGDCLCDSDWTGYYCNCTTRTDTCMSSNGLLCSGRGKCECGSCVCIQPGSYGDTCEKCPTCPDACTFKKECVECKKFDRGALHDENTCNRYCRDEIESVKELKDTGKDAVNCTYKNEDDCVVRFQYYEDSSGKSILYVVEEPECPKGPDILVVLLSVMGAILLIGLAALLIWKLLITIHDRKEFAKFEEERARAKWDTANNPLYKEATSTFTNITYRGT
Integrin alpha-IIb/beta-3, sequence (P08514 32-887 limits assumed): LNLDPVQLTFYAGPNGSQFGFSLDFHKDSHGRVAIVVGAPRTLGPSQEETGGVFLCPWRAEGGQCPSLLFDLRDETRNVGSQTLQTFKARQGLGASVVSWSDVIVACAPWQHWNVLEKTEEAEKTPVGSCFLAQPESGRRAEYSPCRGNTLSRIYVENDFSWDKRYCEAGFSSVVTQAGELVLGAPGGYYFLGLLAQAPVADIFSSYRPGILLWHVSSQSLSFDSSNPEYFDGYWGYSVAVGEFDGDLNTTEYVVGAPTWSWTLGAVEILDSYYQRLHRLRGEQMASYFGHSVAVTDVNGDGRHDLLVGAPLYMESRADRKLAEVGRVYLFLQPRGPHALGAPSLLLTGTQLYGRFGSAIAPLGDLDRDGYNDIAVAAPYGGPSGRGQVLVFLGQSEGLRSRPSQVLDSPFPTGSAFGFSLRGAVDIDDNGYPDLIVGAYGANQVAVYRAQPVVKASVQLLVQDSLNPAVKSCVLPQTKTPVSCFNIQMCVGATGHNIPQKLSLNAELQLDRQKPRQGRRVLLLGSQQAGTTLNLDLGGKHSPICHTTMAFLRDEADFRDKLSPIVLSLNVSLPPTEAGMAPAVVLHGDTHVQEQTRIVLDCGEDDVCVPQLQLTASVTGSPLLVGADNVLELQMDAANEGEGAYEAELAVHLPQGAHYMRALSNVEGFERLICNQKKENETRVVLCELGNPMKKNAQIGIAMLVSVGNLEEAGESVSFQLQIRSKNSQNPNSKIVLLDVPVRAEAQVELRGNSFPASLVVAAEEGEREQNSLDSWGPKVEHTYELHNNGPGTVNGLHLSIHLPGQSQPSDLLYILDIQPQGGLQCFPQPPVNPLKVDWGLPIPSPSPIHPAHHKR
Integrin alpha-IIb/beta-3, sequence (P08514 891-1039 limits assumed): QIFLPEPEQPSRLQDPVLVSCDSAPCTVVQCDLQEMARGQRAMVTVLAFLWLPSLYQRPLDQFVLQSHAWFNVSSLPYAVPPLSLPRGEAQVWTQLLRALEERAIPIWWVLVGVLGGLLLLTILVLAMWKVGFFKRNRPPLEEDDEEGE

As to `N=C(N)c1ccc(N2CCN(Cc3ccc(CC(=O)O)cc3)CC2)cc1`, in experiment [1], the pIC50 (usually the IC50 on a negative log10 scale, so that one unit is a factor of ten) was 6.70.

In turn, `CC(C)(Oc1ccc(N2CCN(c3ccc(C(=N)N)cc3)CC2)cc1)C(=O)O` showed a pIC50 in experiment [1] of 6.00.

For the compound `N=C(N)c1ccc(N2CCN(C3CCN(CC(=O)O)CC3)CC2)cc1`, the figures for the negative logarithm of the IC50 (pIC50) (in the experiment listed under Cavia porcellus; in the experiment listed under Homo sapiens; in experiment [1]) were 6.60, 6.20 and 8.10, respectively.

`N=C(N)c1ccc(N2CCN(c3ccc(CC(=O)O)cc3)CC2)cc1` had a pIC50 in experiment [1] of 6.00.

As to `CN(CC(=O)c1ccc(OCC(=O)O)c(OCC(=O)O)c1)C(=O)c1ccc(C(=N)N)cc1`, the values for the pIC50 (in the experiment filed under Cavia porcellus; in experiment [1]) were 6.60 and 9.00, respectively.

`N=C(N)c1ccc(N2CCN(c3cccc(OCC(=O)O)c3)CC2)cc1` had a pIC50 in experiment [1] of 5.70.

In experiment [1], `N=C(N)c1ccc(N2CCN(c3ccc(CCC(=O)O)cc3)CC2)cc1` gave a negative logarithm of the IC50 (pIC50) of 7.60.

In the case of `N=C(N)c1ccc(N2CCN(c3ccc(OCC(=O)O)cc3)CC2)cc1`, the values for the pIC50 (in the experiment listed under Cavia porcellus; in the experiment filed under Homo sapiens; in experiment [1]) were 5.50, 6.00 and 8.70, respectively.

In experiment [1], `N=C(N)c1ccc(CN2CCN(c3cccc(OCC(=O)O)c3)CC2)cc1` showed a negative logarithm of the IC50 (pIC50) of 4.80.

With `N=C(N)c1ccc(N2CCN(c3cccc(CC(=O)O)c3)CC2)cc1`, in experiment [1], the negative logarithm of the IC50 (pIC50) was 5.80.

Turning to `N=C(N)c1ccc(CN2CCN(c3cccc(CC(=O)O)c3)CC2)cc1`, the negative logarithm of the IC50 (pIC50) in experiment [1] was 4.40.

On to `N=C(N)c1ccc(CN2CCN(c3ccc(CC(=O)O)cc3)CC2)cc1`, for which the negative logarithm of the IC50 (pIC50) in experiment [1] is 5.60.

`N=C(N)c1ccc(N2CCN(c3ccc(OCCCC(=O)O)cc3)CC2)cc1` had a pIC50 in experiment [1] of less than 5.00.

In experiment [1], `N=C(N)c1ccc(N2CCN(Cc3cccc(CC(=O)O)c3)CC2)cc1` showed a pIC50 of 5.90.

In experiment [1], `N=C(N)c1ccc(N2CCN(Cc3cccc(OCC(=O)O)c3)CC2)cc1` showed a pIC50 of 5.40.
